Results from patent US7977348B2, “Polymorphic forms of imatinib mesylate and processes for preparation of novel crystalline forms as well as amorphous and form α” (Sicor Inc., priority 2006, dated 2011).

Assays:
[1] = Tablet pressing followed by PXRD analysis of the solid form; type: physicochemical; conditions: 200 mg tablet with 86 mg imatinib mesylate substance and excipients
Experimental: XRD diffraction was performed on X-Ray powder diffractometer: Philips X'pert Pro powder diffractometer, Cu-tube, scanning parameters: CuKα radiation, λ=1.5418 Å. Continuous scan at a rate of: 0.02° 2theta/0.3 sec.
Form V, having the main PXRD peaks at 9.9, 11.7, 13.3, 16.6, and 22.1±0.2 degrees two-theta, and all the components presented in the below table were weighed together and mixed to obtain a tablet.
Form X, having the main PXRD peaks at 6.0, 8.6, 11.4, 14.2, and 18.3±0.2 degrees two-theta, and all the components presented in the below table were weighed together and mixed to obtain a tablet.
Amorphous Imatinib mesylate and all the components presented in the below table were weighed together and mixed to obtain a tablet.

[2] = Moisture sensitivity / hygroscopicity of the solid phase noted during drying; type: physicochemical; conditions: filter cake dried under nitrogen stream
Experimental: Imatinib base (3 g, 0.0061 mole) was suspended in dry ethanol (60 ml). The suspension was cooled to −40° C. and then an ethanol-solution of methanesulfonic acid (0.591 g in 3.59 ml; 0.0061 mole) was added at once. Exactly after 5 min of stirring at −40° C. the seeding crystal (Form IV, 0.1 g) was put into the suspension. The stirring was maintained for additional 25 minutes in the temperature range from −40° C. to −35° C. Then the suspension was let to stay in freezer at −28° C. for 14 hours. In the course of standing, the major part of crystalline phase was created—important requirement is absence of motion. After standing the suspension was diluted with MTBE (50 ml) and crystalline product was filtered. […] Imatinib mesylate (Form IV) was obtained (3.61 g; yield: 90.1%).
Imatinib base (75 g, 0.152 mole) was placed into double-jacketed glass-reactor and suspended with water-1,3-dioxolane mixture (37.5 ml: 712.5 ml). The content of the reactor was kept (for all the time) under gentle nitrogen stream. The temperature was adjusted at 20° C., undiluted methanesulphonic acid (14.21 g, 0.148 mole) was added (at once or dropwise during a few minutes). The two-phase liquid was stirred cca 50 min at 20° C. […] The drying process was monitored by measuring LOD (loss on drying)—it was finished when LOD reached 11-12%. […]

[3] = Particle size of the crystalline form; type: physicochemical
[4] = Stability of the crystalline form under pressure and under heating; conditions: solid form

Row | solid form found by PXRD after the tablet was pressed [1] | hygroscopicity / moisture sensitivity of solid phase [2] | particle size [3] | stability under pressure [4] | stable under heating up to a temperature of [4] | Structure (SMILES)
1 | retaining the amorphous form |  |  |  |  | CS(=O)(=O)O.Cc1ccc(NC(=O)c2ccc(CN3CCN(C)CC3)cc2)cc1Nc1nccc(-c2cccnc2)n1 [Amorphous Imatinib mesylate, 4-(4-methylpiperazin-1-ylmethyl)-N-[4-methyl-3-[(4-pyrinin-3-yl)pyrimidin-2-yloamino]phenyl]benzamide mesylate, reference compound]
2 |  | moisture sensitive | less than 100 microns |  |  | CS(=O)(=O)O.Cc1ccc(NC(=O)c2ccc(CN3CCN(C)CC3)cc2)cc1Nc1nccc(-c2cccnc2)n1 [Form IV, 4-(4-methylpiperazin-1-ylmethyl)-N-[4-methyl-3-[(4-pyrinin-3-yl)pyrimidin-2-yloamino]phenyl]benzamide mesylate]
3 | belong to form V |  |  | stable under pressure | ≤ 80 °C | CS(=O)(=O)O.Cc1ccc(NC(=O)c2ccc(CN3CCN(C)CC3)cc2)cc1Nc1nccc(-c2cccnc2)n1 [Form V, 4-(4-methylpiperazin-1-ylmethyl)-N-[4-methyl-3-[(4-pyrinin-3-yl)pyrimidin-2-yloamino]phenyl]benzamide mesylate]
4 |  | very hydroscopic | less than 100 microns |  |  | CS(=O)(=O)O.Cc1ccc(NC(=O)c2ccc(CN3CCN(C)CC3)cc2)cc1Nc1nccc(-c2cccnc2)n1 [Form VI, 4-(4-methylpiperazin-1-ylmethyl)-N-[4-methyl-3-[(4-pyrinin-3-yl)pyrimidin-2-yloamino]phenyl]benzamide mesylate]
5 |  |  | less than 100 microns |  |  | CS(=O)(=O)O.Cc1ccc(NC(=O)c2ccc(CN3CCN(C)CC3)cc2)cc1Nc1nccc(-c2cccnc2)n1 [Form VII, 4-(4-methylpiperazin-1-ylmethyl)-N-[4-methyl-3-[(4-pyrinin-3-yl)pyrimidin-2-yloamino]phenyl]benzamide mesylate]
6 | belong to form X |  | less than 100 microns |  |  | CS(=O)(=O)O.Cc1ccc(NC(=O)c2ccc(CN3CCN(C)CC3)cc2)cc1Nc1nccc(-c2cccnc2)n1 [Form X, 4-(4-methylpiperazin-1-ylmethyl)-N-[4-methyl-3-[(4-pyrinin-3-yl)pyrimidin-2-yloamino]phenyl]benzamide mesylate]
